Test results from US20230181614A1, “ADMINISTRATION OF CITICOLINE TO IMPROVE COGNITIVE PERFORMANCE, ATTENTIONAL PERFORMANCE, AND MOTOR FUNCTION” (KYOWA HAKKO BIO CO., LTD., priority 2014, published 2023).
Values joined by “and” are separate entries in the source; they are usually repeats but may differ in a detail not shown here. Equal entries are not always repeated.

What was measured:
[1] = tested on: Healthy subjects, ages 13-18; assay: Stroop Color Word Test; format: in vivo, human; set-up: unit not given here; settings: for Stroop Color Trial V1, Mean / Stroop Difference V1, Mean / Stroop Interference Trial V1, Mean / Stroop Word Trial V1, Mean: Visit 1; for V3-V1 Stroop Color Trial, Mean / V3-V1 Stroop Difference, Mean / V3-V1 Stroop Interference Trial, Mean / V3-V1 Stroop Word Trial, Mean: Visit difference score; for Stroop Color Trial V3, Mean / Stroop Difference V3, Mean / Stroop Interference Trial V3, Mean / Stroop Word Trial V3, Mean: Visit 3
Source text: (§1) Study participants were screened by telephone prior to study enrollment. Healthy subjects, ages 13-18, with no significant medical conditions and no history of co-morbid psychiatric disorder, current Axis I or II diagnosis, or previous participation in a pharmacotherapeutic trial, were selected. Use of any psychotropic medication or any previous head injury resulting in loss of consciousness for 5 or more minutes were used as exclusion criteria. While no participant met criteria for a neuropsychiatric disorder at enrollment, clinical assessments were still completed throughout the study to evaluate changes in mood state. In addition, self-reports of sleep habits, lifestyle, and exercise routines were also administered at baseline as well as at each study visit to assess changes in health habits during study participation. Following the completion of Visit 1 assessment, participants were given their 28-day supply of citicoline (250 mg or 500 mg) or placebo, which was randomly assigned. They were instructed to take one capsule a day every day for the next 28 days. Visit 2 occurred fourteen days after Visit 1. At Visit 2, the remaining study pills were counted and participant dosage calendars were checked to ensure compliance with the protocol. Additional neuropsychological measures and clinical assessments were administered during this visit. Participants returned for Visit 3 fourteen days later, on the 28th day of their study participation. The pill bottle and the dosage calendar were collected from each participant. Urine and blood were again obtained. Participants also participated in similar clinical and neuropsychological testing and clinical measures that were given during visit 1. The Stroop measures the ability to inhibit incorrect responses and to resist interference. The three conditions, Color Naming, Word Reading, and Interference, are designed to establish competing response tendencies. Outcome variables include time to complete each condition, as well as total errors per condition. The Stroop test was administered at each of the three visits.

[2] = tested on: Healthy subjects, ages 13-18; assay: California Verbal Learning Test I and II (CVLT); format: in vivo, human; settings: for CVLT I & II List A Long Delay V1, Mean / CVLT I & II List A Short Delay V1, Mean / CVLT I & II List A Trial 1 V1, Mean / CVLT I & II List A Trial 5 V1, Mean / CVLT I & II List A Trials 1-5 V1, Mean / CVLT I & II List B V1, Mean: Visit 1; for V3-V1 CVLT I & II Difference List A Long Delay, Mean / V3-V1 CVLT I & II Difference List A Short Delay, Mean / V3-V1 CVLT I & II Difference List A Trial 1, Mean / V3-V1 CVLT I & II Difference List A Trial 5, Mean / V3-V1 CVLT I & II Difference List A Trials 1-5, Mean / V3-V1 CVLT I & II Difference List B Trial 1, Mean: Visit difference score; for CVLT I & II List A Long Delay V3, Mean / CVLT I & II List A Short Delay V3, Mean / CVLT I & II List A Trial 1 V3, Mean / CVLT I & II List A Trial 5 V3, Mean / CVLT I & II List A Trials 1-5 V3, Mean / CVLT I & II List B V3, Mean: Visit 3
Source text: as §1, with “[…] Subjects are asked to remember a 16-item word list, which is presented on five trials. After each trial,” for “The Stroop measures”, “subject is asked” for “ability”, “recall all of the words that they can remember. A second list is then presented” for “inhibit incorrect responses and”, “provide an interference” for “resist interference. The three conditions, Color Naming, Word Reading, and Interference, are designed to establish competing response tendencies. Outcome variables include time to complete each condition, as well as total errors per”, “subject is then asked to recall the first word list. After a temporal delay, the subject is again asked to recall the first word list. Test results provide scores for assessing verbal learning, strength of memory following interfering tasks, proactive interference, accuracy of recognition memory and storage versus retrieval of newly learned information. The CVLT” for “Stroop test”, “all” for “each of the”

In the case of `C[N+](C)(C)CCOP(=O)(O)OP(=O)([O-])OC[C@H]1O[C@@H](n2ccc(N)nc2=O)[C@H](O)[C@@H]1O` [citicoline, Cytidine 5′-diphosphocholine], the “Stroop Color Trial V1, Mean” value ([1]; 250 mg/day group) is reported as 61.05, the “Stroop Difference V1, Mean” value ([1]; 250 mg/day group) is reported as 43.53 and the “Stroop Interference Trial V1, Mean” value ([1]; 250 mg/day group) is reported as 91.85. For the same compound, the “Stroop Word Trial V1, Mean” value ([1]; 250 mg/day group) was 48.32, the “V3-V1 Stroop Color Trial, Mean” value ([1]; 250 mg/day group) was -7.71 and the “V3-V1 Stroop Difference, Mean” value ([1]; 250 mg/day group) was -17.53. For the same compound, the “V3-V1 Stroop Interference Trial, Mean” value ([1]; 250 mg/day group) was -19.03, the “V3-V1 Stroop Word Trial, Mean” value ([1]; 250 mg/day group) was -1.98 and the “Stroop Color Trial V3, Mean” value ([1]; 250 mg/day group) was 53.34 and 53.35. The “Stroop Difference V3, Mean” value ([1]; 250 mg/day group) was 26.00, the “Stroop Interference Trial V3, Mean” value ([1]; 250 mg/day group) was 72.82 and the “Stroop Word Trial V3, Mean” value ([1]; 250 mg/day group) was 46.34. The “Stroop Color Trial V1, Mean” value ([1]; 500 mg/day group) was 60.12, the “Stroop Difference V1, Mean” value ([1]; 500 mg/day group) was 44.93 and the “Stroop Interference Trial V1, Mean” value ([1]; 500 mg/day group) was 91.62. The “Stroop Word Trial V1, Mean” value ([1]; 500 mg/day group) was 46.69, the “V3-V1 Stroop Color Trial, Mean” value ([1]; 500 mg/day group) was -5.77 and the “V3-V1 Stroop Difference, Mean” value ([1]; 500 mg/day group) was -15.55. For the same compound, the “V3-V1 Stroop Interference Trial, Mean” value ([1]; 500 mg/day group) was -16.95, the “V3-V1 Stroop Word Trial, Mean” value ([1]; 500 mg/day group) was -1.40 and the “Stroop Color Trial V3, Mean” value ([1]; 500 mg/day group) was 54.35. The “Stroop Difference V3, Mean” value ([1]; 500 mg/day group) was 29.38, the “Stroop Interference Trial V3, Mean” value ([1]; 500 mg/day group) was 74.68 and the “Stroop Word Trial V3, Mean” value ([1]; 500 mg/day group) was 45.30. For the same compound, the “CVLT I & II List A Long Delay V1, Mean” value ([2]; 250 mg/day group) was 10.26, the “CVLT I & II List A Short Delay V1, Mean” value ([2]; 250 mg/day group) was 10.56 and the “CVLT I & II List A Trial 1 V1, Mean” value ([2]; 250 mg/day group) was 6.11. The “CVLT I & II List A Trial 5 V1, Mean” value ([2]; 250 mg/day group) was 12.33, the “CVLT I & II List A Trials 1-5 V1, Mean” value ([2]; 250 mg/day group) was 50.52 and the “CVLT I & II List B V1, Mean” value ([2]; 250 mg/day group) was 5.78. For the same compound, the “V3-V1 CVLT I & II Difference List A Long Delay, Mean” value ([2]; 250 mg/day group) was 0.81, the “V3-V1 CVLT I & II Difference List A Short Delay, Mean” value ([2]; 250 mg/day group) was 1.04 and the “V3-V1 CVLT I & II Difference List A Trial 1, Mean” value ([2]; 250 mg/day group) was 1.63. For the same compound, the “V3-V1 CVLT I & II Difference List A Trial 5, Mean” value ([2]; 250 mg/day group) was 0.52, the “V3-V1 CVLT I & II Difference List A Trials 1-5, Mean” value ([2]; 250 mg/day group) was 3.11 and the “V3-V1 CVLT I & II Difference List B Trial 1, Mean” value ([2]; 250 mg/day group) was 0.48. The “CVLT I & II List A Long Delay V3, Mean” value ([2]; 250 mg/day group) was 11.07, the “CVLT I & II List A Short Delay V3, Mean” value ([2]; 250 mg/day group) was 11.59 and the “CVLT I & II List A Trial 1 V3, Mean” value ([2]; 250 mg/day group) was 7.74. For the same compound, the “CVLT I & II List A Trial 5 V3, Mean” value ([2]; 250 mg/day group) was 12.85, the “CVLT I & II List A Trials 1-5 V3, Mean” value ([2]; 250 mg/day group) was 53.63 and the “CVLT I & II List B V3, Mean” value ([2]; 250 mg/day group) was 6.26. For the same compound, the “CVLT I & II List A Long Delay V1, Mean” value ([2]; 500 mg/day group) was 9.79, the “CVLT I & II List A Short Delay V1, Mean” value ([2]; 500 mg/day group) was 10.25 and the “CVLT I & II List A Trial 1 V1, Mean” value ([2]; 500 mg/day group) was 6.58. For the same compound, the “CVLT I & II List A Trial 5 V1, Mean” value ([2]; 500 mg/day group) was 11.83, the “CVLT I & II List A Trials 1-5 V1, Mean” value ([2]; 500 mg/day group) was 49.04 and the “CVLT I & II List B V1, Mean” value ([2]; 500 mg/day group) was 6.67. The “V3-V1 CVLT I & II Difference List A Long Delay, Mean” value ([2]; 500 mg/day group) was 1.13, the “V3-V1 CVLT I & II Difference List A Short Delay, Mean” value ([2]; 500 mg/day group) was 0.96 and the “V3-V1 CVLT I & II Difference List A Trial 1, Mean” value ([2]; 500 mg/day group) was 1.00. For the same compound, the “V3-V1 CVLT I & II Difference List A Trial 5, Mean” value ([2]; 500 mg/day group) was 0.88, the “V3-V1 CVLT I & II Difference List A Trials 1-5, Mean” value ([2]; 500 mg/day group) was 3.75 and the “V3-V1 CVLT I & II Difference List B Trial 1, Mean” value ([2]; 500 mg/day group) was -0.33. The “CVLT I & II List A Long Delay V3, Mean” value ([2]; 500 mg/day group) was 10.92, the “CVLT I & II List A Short Delay V3, Mean” value ([2]; 500 mg/day group) was 11.21 and the “CVLT I & II List A Trial 1 V3, Mean” value ([2]; 500 mg/day group) was 7.58. For the same compound, the “CVLT I & II List A Trial 5 V3, Mean” value ([2]; 500 mg/day group) was 12.71, the “CVLT I & II List A Trials 1-5 V3, Mean” value ([2]; 500 mg/day group) was 52.79 and the “CVLT I & II List B V3, Mean” value ([2]; 500 mg/day group) was 6.33.
